Results: ChEMBL document CHEMBL1201862, “PubChem BioAssay data set” (2004)
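Cultured in 96-well plates, cells were exposed to test compound for 48 hours across five concentrations. GI50 is the concentration that inhibits growth by half.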 Active and inactive are the calls of the source. Cut-off read from the data, not from the text of the source: active = GI50 up to about 1.1 µM and inactive = higher.

Assays:
Assay in all cases: NCI-60 cell line screen, 48 h
T47D = system: T47D
TK-10 = system: TK-10
UACC-62 = system: UACC-62
HCT-15 = system: HCT-15
SK-OV-3 = system: SK-OV-3
K562 = system: K562
PC-3 = system: PC-3
SF-539 = system: SF-539
A498 = system: A498
UO-31 = system: UO-31
EKVX = system: EKVX
HCT-116 = system: HCT-116
UACC-257 = system: UACC-257
SN12C = system: SN12C
ACHN = system: ACHN
SW-620 = system: SW-620
KM12 = system: KM12
CCRF-CEM = system: CCRF-CEM
RXF 393 = system: RXF 393
RPMI-8226 = system: RPMI-8226
HOP-92 = system: HOP-92
OVCAR-8 = system: OVCAR-8
OVCAR-5 = system: OVCAR-5
OVCAR-3 = system: OVCAR-3
MDA-MB-231 = system: MDA-MB-231
Malme-3M = system: Malme-3M
HOP-62 = system: HOP-62
MDA-N = system: MDA-N
786-0 = system: 786-0
NCI-H460 = system: NCI-H460
NCI-H226 = system: NCI-H226
COLO 205 = system: COLO 205
MOLT-4 = system: MOLT-4
NCI-H23 = system: NCI-H23
SK-MEL-2 = system: SK-MEL-2
SR = system: SR
NCI/ADR-RES = system: NCI/ADR-RES
LOX IMVI = system: LOX IMVI
NCI-H522 = system: NCI-H522
CAKI-1 = system: CAKI-1
SNB-75 = system: SNB-75
BT-549 = system: BT-549
HL-60 = system: HL-60
SK-MEL-5 = system: SK-MEL-5
MDA-MB-435 = system: MDA-MB-435
A549 = system: A549
SK-MEL-28 = system: SK-MEL-28
Hs-578T = system: Hs-578T
SF-295 = system: SF-295
SF-268 = system: SF-268
HCC 2998 = system: HCC 2998
M14 = system: M14
U-251 = system: U-251
MCF7 = system: MCF7
OVCAR-4 = system: OVCAR-4
DU-145 = system: DU-145
HT-29 = system: HT-29
IGROV-1 = system: IGROV-1
SNB-19 = system: SNB-19

Structure (SMILES): CCCC(=O)Nc1cn(COC)c(C(=O)N2C[C@H]3C[C@@]34C2=CC(=O)c2[nH]cc(C)c24)n1
- GI50 (T47D): 1.88 µM (inactive)
- GI50 (TK-10): 10.1 µM (inactive)
- GI50 (UACC-62): 5.92 µM (inactive)
- GI50 (HCT-15): 11.9 µM
- GI50 (SK-OV-3): 16.7 µM (inactive)
- GI50 (K562): 5.31 µM (inactive)
- GI50 (PC-3): 12.6 µM (inactive)
- GI50 (SF-539): 4.98 µM (inactive)
- GI50 (A498): 8.63 µM (inactive)
- GI50 (UO-31): 10.6 µM (inactive)
- GI50 (EKVX): 11.2 µM (inactive)
- GI50 (HCT-116): 4.68 µM (inactive)
- GI50 (UACC-257): 8.71 µM (inactive)
- GI50 (SN12C): 11.5 µM (inactive)
- GI50 (ACHN): 2.42 µM (inactive)
- GI50 (SW-620): 3.66 µM (inactive)
- GI50 (KM12): > 5 µM (inactive)
- GI50 (CCRF-CEM): 0.71 µM (active)
- GI50 (RXF 393): 8.2 µM (inactive)
- GI50 (RPMI-8226): 6.04 µM (inactive)
- GI50 (HOP-92): 8.05 µM (inactive)
- GI50 (OVCAR-8): 2.69 µM (inactive)
- GI50 (OVCAR-5): 12.4 µM (inactive)
- GI50 (OVCAR-3): 10.4 µM (inactive)
- GI50 (MDA-MB-231): 13.1 µM (inactive)
- GI50 (Malme-3M): 2.44 µM (inactive)
- GI50 (HOP-62): 7.98 µM (inactive)
- GI50 (MDA-N): 9.16 µM (inactive)
- GI50 (786-0): 2.79 µM (inactive)
- GI50 (NCI-H460): 3.24 µM (inactive)
- GI50 (NCI-H226): 9.86 µM (inactive)
- GI50 (COLO 205): 7.78 µM (inactive)
- GI50 (MOLT-4): 0.553 µM (active)
- GI50 (NCI-H23): 2.02 µM (inactive)
- GI50 (SK-MEL-2): 14 µM (inactive)
- GI50 (SR): 2.2 µM (inactive)
- GI50 (NCI/ADR-RES): 6.21 µM (inactive)
- GI50 (LOX IMVI): 7.14 µM (inactive)
- GI50 (NCI-H522): 1.65 µM (inactive)
- GI50 (CAKI-1): 2.72 µM (inactive)
- GI50 (SNB-75): 4.73 µM (inactive)
- GI50 (BT-549): 9.2 µM (inactive)
- GI50 (HL-60): 0.728 µM (active)
- GI50 (SK-MEL-5): 4.06 µM (inactive)
- GI50 (MDA-MB-435): 6.81 µM (inactive)
- GI50 (A549): 12.2 µM (inactive)
- GI50 (SK-MEL-28): 12 µM (inactive)
- GI50 (Hs-578T): 15.4 µM (inactive)
- GI50 (SF-295): 7.94 µM (inactive)
- GI50 (SF-268): 5.12 µM (inactive)
- GI50 (HCC 2998): 2.89 µM (inactive)
- GI50 (M14): 8.15 µM (inactive)
- GI50 (U-251): 4.42 µM (inactive)
- GI50 (MCF7): 1.32 µM (inactive)
- GI50 (OVCAR-4): 9.12 µM (inactive)
- GI50 (DU-145): 1.38 µM (inactive)
- GI50 (HT-29): 7.35 µM (inactive)
- GI50 (IGROV-1): 9.93 µM (inactive)
- GI50 (SNB-19): 18.1 µM (inactive)

Structure (SMILES): Cc1ccc(C(=O)/C=C2/Nc3ccccc3NC2=O)c(C)c1
- GI50 (T47D): 22.1 µM (inactive)
- GI50 (TK-10): 5.58 µM (inactive)
- GI50 (UACC-62): 5.37 µM (inactive)
- GI50 (HCT-15): 64.3 µM
- GI50 (SK-OV-3): 7.05 µM (inactive)
- GI50 (K562): 61.5 µM (inactive)
- GI50 (PC-3): 18.2 µM (inactive)
- GI50 (SF-539): 5.04 µM (inactive)
- GI50 (A498): 0.228 µM (active)
- GI50 (UO-31): 8.32 µM (inactive)
- GI50 (EKVX): 8.77 µM (inactive)
- GI50 (HCT-116): 11.8 µM (inactive)
- GI50 (UACC-257): 42.1 µM (inactive)
- GI50 (SN12C): 16 µM (inactive)
- GI50 (ACHN): 8.36 µM (inactive)
- GI50 (SW-620): 27.2 µM (inactive)
- GI50 (KM12): 20.8 µM (inactive)
- GI50 (CCRF-CEM): 62.5 µM (inactive)
- GI50 (RXF 393): 7.52 µM (inactive)
- GI50 (RPMI-8226): 25.2 µM (inactive)
- GI50 (HOP-92): 3.04 µM (inactive)
- GI50 (OVCAR-8): 5.28 µM (inactive)
- GI50 (OVCAR-5): 44.7 µM (inactive)
- GI50 (OVCAR-3): 32 µM (inactive)
- GI50 (MDA-MB-231): 14.3 µM (inactive)
- GI50 (Malme-3M): 54.6 µM (inactive)
- GI50 (HOP-62): 5.62 µM (inactive)
- GI50 (MDA-N): 17.5 µM (inactive)
- GI50 (786-0): 4.19 µM (inactive)
- GI50 (NCI-H460): 13.2 µM (inactive)
- GI50 (NCI-H226): 10.8 µM (inactive)
- GI50 (COLO 205): 62.1 µM (inactive)
- GI50 (MOLT-4): 45.5 µM (inactive)
- GI50 (NCI-H23): 16.1 µM (inactive)
- GI50 (SK-MEL-2): 46.5 µM (inactive)
- GI50 (SR): 29.4 µM (inactive)
- GI50 (NCI/ADR-RES): 7.89 µM (inactive)
- GI50 (LOX IMVI): 22.6 µM (inactive)
- GI50 (NCI-H522): 7.73 µM (inactive)
- GI50 (CAKI-1): 3.95 µM (inactive)
- GI50 (SNB-75): 6.32 µM (inactive)
- GI50 (BT-549): 35.4 µM (inactive)
- GI50 (HL-60): 23.4 µM (inactive)
- GI50 (SK-MEL-5): 19 µM (inactive)
- GI50 (MDA-MB-435): 30.8 µM (inactive)
- GI50 (A549): 13.7 µM (inactive)
- GI50 (SK-MEL-28): 14.7 µM (inactive)
- GI50 (Hs-578T): 16.2 µM (inactive)
- GI50 (SF-295): 9.46 µM (inactive)
- GI50 (SF-268): 6.95 µM (inactive)
- GI50 (HCC 2998): 29.4 µM (inactive)
- GI50 (M14): 49.2 µM (inactive)
- GI50 (U-251): 11.2 µM (inactive)
- GI50 (MCF7): 13.3 µM (inactive)
- GI50 (OVCAR-4): 2.7 µM (inactive)
- GI50 (DU-145): 30.1 µM (inactive)
- GI50 (HT-29): 23.4 µM (inactive)
- GI50 (IGROV-1): 12.7 µM (inactive)
- GI50 (SNB-19): 9.71 µM (inactive)
